According to ChEMBL document CHEMBL1151464 (2008):

How the values were obtained:
Format in all cases: functional
Acinetobacter baumannii [1] = experiment: Antibacterial activity against Acinetobacter baumannii isolate 889 after 24 hrs by CLSI microdilution method
Pseudomonas aeruginosa [2] = experiment: Antibacterial activity against Pseudomonas aeruginosa isolate 366 after 24 hrs by CLSI microdilution method
Pseudomonas aeruginosa [3] = experiment: Antibacterial activity against Pseudomonas aeruginosa isolate 345 after 24 hrs by CLSI microdilution method
Acinetobacter baumannii [4] = experiment: Antibacterial activity against Acinetobacter baumannii isolate 902 after 24 hrs by CLSI microdilution method
Acinetobacter baumannii [5] = experiment: Antibacterial activity against Acinetobacter baumannii isolate 925 after 24 hrs by CLSI microdilution method
Acinetobacter baumannii [6] = experiment: Antibacterial activity against Acinetobacter baumannii isolate 922 after 24 hrs by CLSI microdilution method
Acinetobacter baumannii [7] = experiment: Antibacterial activity against Acinetobacter baumannii isolate 897 after 24 hrs by CLSI microdilution method
Acinetobacter baumannii [8] = experiment: Antibacterial activity against Acinetobacter baumannii isolate 930 after 24 hrs by CLSI microdilution method
Pseudomonas aeruginosa [9] = experiment: Antibacterial activity against Pseudomonas aeruginosa isolate 322 after 24 hrs by CLSI microdilution method
Acinetobacter baumannii [10] = experiment: Antibacterial activity against Acinetobacter baumannii isolate 904 after 24 hrs by CLSI microdilution method
Acinetobacter baumannii [11] = experiment: Antibacterial activity against Acinetobacter baumannii isolate 906 after 24 hrs by CLSI microdilution method
Acinetobacter baumannii [12] = experiment: Antibacterial activity against Acinetobacter baumannii isolate 883 after 24 hrs by CLSI microdilution method
Pseudomonas aeruginosa [13] = experiment: Antibacterial activity against Pseudomonas aeruginosa isolate 367 after 24 hrs by CLSI microdilution method
Acinetobacter baumannii [14] = experiment: Antibacterial activity against Acinetobacter baumannii isolate 923 after 24 hrs by CLSI microdilution method
Acinetobacter baumannii [15] = experiment: Antibacterial activity against Acinetobacter baumannii isolate 911 after 24 hrs by CLSI microdilution method
Pseudomonas aeruginosa [16] = experiment: Antibacterial activity against Pseudomonas aeruginosa isolate 373 after 24 hrs by CLSI microdilution method
Pseudomonas aeruginosa [17] = experiment: Antibacterial activity against Pseudomonas aeruginosa isolate 335 after 24 hrs by CLSI microdilution method
Acinetobacter baumannii [18] = experiment: Antibacterial activity against Acinetobacter baumannii isolate 900 after 24 hrs by CLSI microdilution method
Pseudomonas aeruginosa [19] = experiment: Antibacterial activity against Pseudomonas aeruginosa isolate 340 after 24 hrs by CLSI microdilution method
Pseudomonas aeruginosa [20] = experiment: Antibacterial activity against Pseudomonas aeruginosa isolate 374 after 24 hrs by CLSI microdilution method
Acinetobacter baumannii [21] = experiment: Antibacterial activity against Acinetobacter baumannii isolate 899 after 24 hrs by CLSI microdilution method
Pseudomonas aeruginosa [22] = experiment: Antibacterial activity against Pseudomonas aeruginosa isolate 354 after 24 hrs by CLSI microdilution method
Acinetobacter baumannii [23] = experiment: Antibacterial activity against Acinetobacter baumannii isolate 914 after 24 hrs by CLSI microdilution method
Pseudomonas aeruginosa [24] = experiment: Antibacterial activity against Pseudomonas aeruginosa isolate 372 after 24 hrs by CLSI microdilution method
Pseudomonas aeruginosa [25] = experiment: Antibacterial activity against Pseudomonas aeruginosa isolate 349 after 24 hrs by CLSI microdilution method
Acinetobacter baumannii [26] = experiment: Antibacterial activity against Acinetobacter baumannii isolate 934 after 24 hrs by CLSI microdilution method
Pseudomonas aeruginosa [27] = experiment: Antibacterial activity against Pseudomonas aeruginosa isolate 332 after 24 hrs by CLSI microdilution method
Acinetobacter baumannii [28] = experiment: Antibacterial activity against Acinetobacter baumannii isolate 886 after 24 hrs by CLSI microdilution method
Acinetobacter baumannii [29] = experiment: Antibacterial activity against Acinetobacter baumannii isolate 918 after 24 hrs by CLSI microdilution method
Acinetobacter baumannii [30] = experiment: Antibacterial activity against Acinetobacter baumannii isolate 893 after 24 hrs by CLSI microdilution method
Pseudomonas aeruginosa [31] = experiment: Antibacterial activity against Pseudomonas aeruginosa isolate 363 after 24 hrs by CLSI microdilution method
Acinetobacter baumannii [32] = experiment: Antibacterial activity against Acinetobacter baumannii isolate 884 after 24 hrs by CLSI microdilution method
Pseudomonas aeruginosa [33] = experiment: Antibacterial activity against Pseudomonas aeruginosa isolate 341 after 24 hrs by CLSI microdilution method
Pseudomonas aeruginosa [34] = experiment: Antibacterial activity against Pseudomonas aeruginosa isolate 371 after 24 hrs by CLSI microdilution method
Acinetobacter baumannii [35] = experiment: Antibacterial activity against Acinetobacter baumannii isolate 895 after 24 hrs by CLSI microdilution method
Acinetobacter baumannii [36] = experiment: Antibacterial activity against Acinetobacter baumannii isolate 890 after 24 hrs by CLSI microdilution method
Pseudomonas aeruginosa [37] = experiment: Antibacterial activity against Pseudomonas aeruginosa isolate 339 after 24 hrs by CLSI microdilution method
Pseudomonas aeruginosa [38] = experiment: Antibacterial activity against Pseudomonas aeruginosa isolate 346 after 24 hrs by CLSI microdilution method
Acinetobacter baumannii [39] = experiment: Antibacterial activity against Acinetobacter baumannii isolate 929 after 24 hrs by CLSI microdilution method
Acinetobacter baumannii [40] = experiment: Antibacterial activity against Acinetobacter baumannii isolate 887 after 24 hrs by CLSI microdilution method
Acinetobacter baumannii [41] = experiment: Antibacterial activity against Acinetobacter baumannii isolate 898 after 24 hrs by CLSI microdilution method
Pseudomonas aeruginosa [42] = experiment: Antibacterial activity against Pseudomonas aeruginosa isolate 370 after 24 hrs by CLSI microdilution method
Pseudomonas aeruginosa [43] = experiment: Antibacterial activity against Pseudomonas aeruginosa isolate 355 after 24 hrs by CLSI microdilution method
Acinetobacter baumannii [44] = experiment: Antibacterial activity against Acinetobacter baumannii isolate 903 after 24 hrs by CLSI microdilution method
Acinetobacter baumannii [45] = experiment: Antibacterial activity against Acinetobacter baumannii isolate 907 after 24 hrs by CLSI microdilution method
Acinetobacter baumannii [46] = experiment: Antibacterial activity against Acinetobacter baumannii isolate 921 after 24 hrs by CLSI microdilution method
Pseudomonas aeruginosa [47] = experiment: Antibacterial activity against Pseudomonas aeruginosa isolate 364 after 24 hrs by CLSI microdilution method
Pseudomonas aeruginosa [48] = experiment: Antibacterial activity against Pseudomonas aeruginosa isolate 352 after 24 hrs by CLSI microdilution method
Acinetobacter baumannii [49] = experiment: Antibacterial activity against Acinetobacter baumannii isolate 892 after 24 hrs by CLSI microdilution method
Pseudomonas aeruginosa [50] = experiment: Antibacterial activity against Pseudomonas aeruginosa isolate 324 after 24 hrs by CLSI microdilution method
Pseudomonas aeruginosa [51] = experiment: Antibacterial activity against Pseudomonas aeruginosa isolate 329 after 24 hrs by CLSI microdilution method
Acinetobacter baumannii [52] = experiment: Antibacterial activity against Acinetobacter baumannii isolate 901 after 24 hrs by CLSI microdilution method
Pseudomonas aeruginosa [53] = experiment: Antibacterial activity against Pseudomonas aeruginosa isolate 375 after 24 hrs by CLSI microdilution method
Acinetobacter baumannii [54] = experiment: Antibacterial activity against Acinetobacter baumannii isolate 917 after 24 hrs by CLSI microdilution method
Pseudomonas aeruginosa [55] = experiment: Antibacterial activity against Pseudomonas aeruginosa isolate 350 after 24 hrs by CLSI microdilution method
Pseudomonas aeruginosa [56] = experiment: Antibacterial activity against Pseudomonas aeruginosa isolate 361 after 24 hrs by CLSI microdilution method
Pseudomonas aeruginosa [57] = experiment: Antibacterial activity against Pseudomonas aeruginosa isolate 362 after 24 hrs by CLSI microdilution method
Acinetobacter baumannii [58] = experiment: Antibacterial activity against Acinetobacter baumannii isolate 924 after 24 hrs by CLSI microdilution method
Pseudomonas aeruginosa [59] = experiment: Antibacterial activity against Pseudomonas aeruginosa isolate 320 after 24 hrs by CLSI microdilution method
Acinetobacter baumannii [60] = experiment: Antibacterial activity against Acinetobacter baumannii isolate 888 after 24 hrs by CLSI microdilution method

COLISTIN
MIC (Acinetobacter baumannii [1]): 16 µg/mL | MIC (Pseudomonas aeruginosa [2]): 0.5 µg/mL | MIC (Pseudomonas aeruginosa [3]): 1 µg/mL | MIC (Acinetobacter baumannii [4]): 2 µg/mL | MIC (Acinetobacter baumannii [5]): 16 µg/mL | MIC (Acinetobacter baumannii [6]): 4 µg/mL | MIC (Acinetobacter baumannii [7]): 4 µg/mL | MIC (Acinetobacter baumannii [8]): 0.25 µg/mL | MIC (Pseudomonas aeruginosa [9]): 0.5 µg/mL | MIC (Acinetobacter baumannii [10]): 16 µg/mL | MIC (Acinetobacter baumannii [11]): 4 µg/mL | MIC (Acinetobacter baumannii [12]): 32 µg/mL | MIC (Pseudomonas aeruginosa [13]): 0.5 µg/mL | MIC (Acinetobacter baumannii [14]): 4 µg/mL | MIC (Acinetobacter baumannii [15]): 8 µg/mL | MIC (Pseudomonas aeruginosa [16]): 1 µg/mL | MIC (Pseudomonas aeruginosa [17]): 1 µg/mL | MIC (Acinetobacter baumannii [18]): 2 µg/mL | MIC (Pseudomonas aeruginosa [19]): 1 µg/mL | MIC (Pseudomonas aeruginosa [20]): 1 µg/mL | MIC (Acinetobacter baumannii [21]): 32 µg/mL | MIC (Pseudomonas aeruginosa [22]): 0.5 µg/mL | MIC (Acinetobacter baumannii [23]): 2 µg/mL | MIC (Pseudomonas aeruginosa [24]): 1 µg/mL | MIC (Pseudomonas aeruginosa [25]): 1 µg/mL | MIC (Acinetobacter baumannii [26]): 8 µg/mL | MIC (Pseudomonas aeruginosa [27]): 0.5 µg/mL | MIC (Acinetobacter baumannii [28]): 1 µg/mL | MIC (Acinetobacter baumannii [29]): 4 µg/mL | MIC (Acinetobacter baumannii [30]): 0.5 µg/mL | MIC (Pseudomonas aeruginosa [31]): 0.25 µg/mL | MIC (Acinetobacter baumannii [32]): 2 µg/mL | MIC (Pseudomonas aeruginosa [33]): 0.5 µg/mL | MIC (Pseudomonas aeruginosa [34]): 1 µg/mL | MIC (Acinetobacter baumannii [35]): 2 µg/mL | MIC (Acinetobacter baumannii [36]): 2 µg/mL | MIC (Pseudomonas aeruginosa [37]): 1 µg/mL | MIC (Pseudomonas aeruginosa [38]): 2 µg/mL | MIC (Acinetobacter baumannii [39]): 32 µg/mL | MIC (Acinetobacter baumannii [40]): 16 µg/mL | MIC (Acinetobacter baumannii [41]): 1 µg/mL | MIC (Pseudomonas aeruginosa [42]): 2 µg/mL | MIC (Pseudomonas aeruginosa [43]): 1 µg/mL | MIC (Acinetobacter baumannii [44]): 0.25 µg/mL | MIC (Acinetobacter baumannii [45]): 1 µg/mL | MIC (Acinetobacter baumannii [46]): 1 µg/mL | MIC (Pseudomonas aeruginosa [47]): 1 µg/mL | MIC (Pseudomonas aeruginosa [48]): 4 µg/mL | MIC (Acinetobacter baumannii [49]): 16 µg/mL | MIC (Pseudomonas aeruginosa [50]): 2 µg/mL | MIC (Pseudomonas aeruginosa [51]): 1 µg/mL | MIC (Acinetobacter baumannii [52]): 8 µg/mL | MIC (Pseudomonas aeruginosa [53]): 0.5 µg/mL | MIC (Acinetobacter baumannii [54]): 4 µg/mL | MIC (Pseudomonas aeruginosa [55]): 1 µg/mL | MIC (Pseudomonas aeruginosa [56]): 1 µg/mL | MIC (Pseudomonas aeruginosa [57]): 1 µg/mL | MIC (Acinetobacter baumannii [58]): 2 µg/mL | MIC (Pseudomonas aeruginosa [59]): 1 µg/mL | MIC (Acinetobacter baumannii [60]): 4 µg/mL
